Earlier results in patent US8080647B2 (priority 2006, dated 2011).

Experiments:
[1] = target: lac repressor (Escherichia coli, UniProt P03023)
[2] = system: cells
[3] = system: lac operator-repressor system; conditions: Ulmasov et al. 1997

CC(C)S[C@@H]1O[C@H](CO)[C@H](O)[C@H](O)[C@H]1O [IPTG, isopropyl-B-D-thiogalactopyranoside]
reduction of the affinity of lac repressor for the operator [1]: 300 fold | toxicity of the inducing agent [2]: cytotoxic

B1: lactose repressor: repressor protein of the E. coli lactose operon (protein, UniProt P03023 1-360, looked up)
Lactose operon repressor: MKPVTLYDVAEYAGVSYQTVSRVVNQASHVSAKTREKVEAAMAELNYIPNRVAQQLAGKQSLLIGVATSSLALHAPSQIVAAIKSRADQLGASVVVSMVERSGVEACKAAVHNLLAQRVSGLIINYPLDDQDAIAVEAACTNVPALFLDVSDQTPINSIIFSHEDGTRLGVEHLVALGHQQIALLAGPLSSVSARLRLAGWHKYLTRNQIQPIAEREGDWSAMSGFQQTMQMLNEGIVPTAMLVANDQMALGAMRAITESGLRVGADISVVGYDDTEDSSCYIPPLTTIKQDFRLLGQTSVDRLLQLSQGQAVKGNQLLPVSLVKRKTTLAPNTQTASPRALADSLMQLARQVSRLESGQ
repression reported [3]: 30 fold
